{"source": "patent US11696938B2", "about": "“Human cancer cell metastasis inhibitory agent and human cancer cell determination agent” (priority 2017, dated 2023)", "key": {"OV2944 cells [1]": {"test_system": "OV2944 cells", "assay": "Analysis of survival after cell transfer (Kaplan Meier)", "assay_type": "in vivo, mouse", "conditions": "intraperitoneal, 3 nmoles/two days", "method": "The purified OV2944 cells expressing the fluorescent protein tdTomato were transferred into the abdominal cavity of mice (B6C3F1 strain, 9 weeks old, female, CLEA Japan, Inc.) (1×10^5 cells/mouse). […] On Day 21, the abdominal organs were removed, and OV2944 cells expressing the fluorescent protein tdTomato in the liver were observed using a fluorescence stereomicroscope OV110 (Olympus Corporation).\nIntraperitoneal injection was carried out in the same manner as in Experimental Example 13-1 and Experimental Example 13-2, and survival analysis was carried out thereafter to provide Experimental Example 14-1 and Experimental Example 14-2. For the survival curve according to the Kaplan Meier method, a significant difference was analyzed by log-rank test."}, "OV2944 cells [2]": {"test_system": "OV2944 cells", "assay": "Cell binding experiment (fluorescently labeled protein/peptide, confocal microscope)", "set-up": "species or system mouse", "conditions": "for cell-binding ability (fluorescence intensity): 5 μM rhodamine-labeled partial peptides, ranking", "method": "The OV2944-HM-1 cell line (which may be referred to as “OV2944 cells” or, simply, “cells”), which is a commonly used cell line, was used. OV2944 cells were obtained from RIKEN BioResource Center (Cell No. RCB1483), and cultured in DMEM medium (+10% FBS) according to a conventional method.\nCultured cells were fixed on a glass plate (4% paraformaldehyde/phosphate buffer, room temperature, 10 minutes), and treated with sheep serum. Thereafter, mouse dicalcin (5 μM) fluorescently labeled with tetramethylrhodamine (TMR) was reacted with the cells in the presence of 1 mM CaCl2 (4° C., overnight). After washing with TBS buffer, analysis was carried out using a confocal microscope (Carl Zeiss). Further, cell nuclei were stained with DAPI.\nAn experiment was carried out in the same manner as in Experimental Example 1-1 except that the reaction was carried out in the presence of 1 mM EGTA (which may be referred to as “in the absence of calcium”).\nAn experiment was carried out in the same manner as in Experimental Example 1-1 except that immunostaining was carried out using an anti-mouse dicalcin antibody (Catalog No. MAB5167, R&D Systems) as a primary antibody, and an Alexa Fluor (registered trademark) 594-labeled anti-rat IgG antibody (Catalog No. A11007, Invitrogen) as a secondary antibody.\nAn experiment was carried out in the same manner as in Experimental Example 1-1 except that each of partial peptides p1 to p7 (5 μM) fluorescently labeled with rhodamine was used."}, "PC-3 cells [3]": {"test_system": "PC-3 cells", "assay": "Cell invasion assay", "assay_type": "cell-based, human", "conditions": "10 μM; control hDC-p1 10 μM", "method": "(§1) Cell invasion was analyzed using a BD BioCoat (registered trademark) Matrigel Invasion Chamber (Becton, Dickinson and Company). First, a certain amount of cells (about 1×10^5 cells/well) were treated with 2 μM, 8 μM, or 20 μM mouse dicalcin at room temperature for 20 minutes.\n(§2) The treated cells were washed by centrifugation treatment, and then plated in the upper chamber of a transwell preliminarily coated with Matrigel, followed by performing culture using DMEM (+10% FBS) as a medium.\n(§3) About 16 hours later, the invading cells that had migrated into the lower chamber were fixed using 4% paraformaldehyde/phosphate buffer at room temperature for 10 minutes, and then stained with crystal violet, followed by excision of the membrane, embedding on a slide, and counting of the cell number. The invasion index was calculated as {(number of stained cells)/(number of plated cells)}×100(%), and normalized by the later-mentioned result of Experimental Example 2-2, which was taken as 100(%).\nAn analysis was carried out in the same manner as in Experimental Example 2-1 except that PC-3 cells were used as the cells, and that 10 μM hDC-p6 was used as a partial peptide. Statistical analysis was carried out by unpaired Student t-test in order to analyze a significant difference."}, "PC-3 cells [4]": {"test_system": "PC-3 cells", "assay": "Cell binding experiment", "set-up": "species or system human", "conditions": "5 μM rhodamine-labeled; calcium absent; control hDC-p1", "from_the_text": "The PC-3 cell line (which may be referred to as “PC-3 cells” or, simply, “cells”), which is a commonly used cell line, was used. PC-3 cells were obtained from RIKEN BioResource Center (Cell No. RCB2145), and cultured in DMEM medium (+10% FBS) according to a conventional method. This line is a human prostate cancer-derived cell line."}, "human cancer tissues": {"test_system": "human cancer tissues", "assay": "Cell binding experiment on paraffin sections of human cancer tissues", "method": "After washing, analysis was carried out using a fluorescence microscope (Olympus Corporation).\nAn experiment was carried out in the same manner as in Experimental Example 15-1 except that a paraffin section derived from a human prostate cancer tissue (US Biomax Inc.) was used as a target.\nAn experiment was carried out in the same manner as in Experimental Example 15-1 except that a paraffin section derived from a human colorectal (colon) cancer tissue (US Biomax Inc.) was used as a target. The white dotted line indicates the border between the tumor area and the normal area.\nAn experiment was carried out in the same manner as in Experimental Example 15-1 except that a paraffin section derived from a human colorectal (rectal) cancer tissue (US Biomax Inc.) was used as a target. The white dotted line indicates the border between the tumor area and the normal area.\nAn experiment was carried out in the same manner as in Experimental Example 15-1 except that a paraffin section derived from a human breast cancer (breast ductal carcinoma) tissue (US Biomax Inc.) was used as a target.\nAn experiment was carried out in the same manner as in Experimental Example 15-1 except that a paraffin section derived from a human breast cancer (invasive lobular carcinoma) tissue (US Biomax Inc.) was used as a target. […]"}, "OVCAR cells [5]": {"test_system": "OVCAR cells", "assay": "Cell invasion assay", "assay_type": "cell-based, human", "method": "as §1, §2, §3\nThe OVCAR-3 cell line (which may be referred to as “OVCAR cells” or, simply, “cells”), which is a commonly used cell line, was used. OVCAR cells were obtained from RIKEN BioResource Center (Cell No. RCB2135), and cultured in DMEM medium (+10% FBS) according to a conventional method. This line is a human ovarian cancer (adenocarcinoma)-derived cell line.\nAn analysis was carried out in the same manner as in Experimental Example 2-1 except that OVCAR cells were used as the cells, and that 8 μM or 20 μM human dicalcin was used instead of mouse dicalcin.\nAn analysis was carried out in the same manner as in Experimental Example 9-1 except that 20 μM BSA was used instead of human dicalcin.\nAn analysis was carried out in the same manner as in Experimental Example 2-1 except that OVCAR cells were used as the cells, and that 2 μM or 10 μM hDC-p6 was used as a partial peptide. Statistical analysis was carried out by unpaired Student t-test in order to analyze a significant difference."}, "OVCAR cells [6]": {"test_system": "OVCAR cells", "assay": "Cell binding experiment", "set-up": "species or system human", "conditions": "5 μM rhodamine-labeled; calcium absent; control p1"}, "OV2944 cells [7]": {"test_system": "OV2944 cells", "assay": "Cell invasion assay (Matrigel Invasion Chamber)", "assay_type": "cell-based, mouse", "conditions": "for cell invasion, ranking of suppression: 8 μM each, versus 10 μM BSA", "method": "as §1, §2\nAbout 16 hours later, the invading cells that had migrated into the lower chamber were fixed using 4% paraformaldehyde/phosphate buffer at room temperature for 10 minutes, and then stained with crystal violet, followed by excision of the membrane, embedding on a slide, and counting of the cell number."}, "OVCAR cells [8]": {"test_system": "OVCAR cells", "assay": "Cell survival assay", "assay_type": "cell-based, human", "conditions": "20 μM; versus 10 μM BSA", "method": "(§4) First, a certain amount of cells (about 1×10^5 cells/well) were treated with 20 μM mouse dicalcin at room temperature for 20 minutes. The cells were then washed and aliquoted into a 96-well plate, followed by performing culture. One hour later, after washing with PBS buffer, the cells were fixed using 4% paraformaldehyde/phosphate buffer at room temperature for 10 minutes. The cells were then stained with crystal violet and solubilized, followed by measuring the absorbance (measurement wavelength, 550 nm) in order to analyze the cell survival rate. The cell survival rate was calculated as {(number of stained cells)/(number of plated cells)}×100(%). Normalization was carried out by the later-mentioned result of Experimental Example 4-2, which was taken as 100(%).\nAn experiment was carried out in the same manner as in Experimental Example 4-1 except that OVCAR cells were used as the cells, and that 20 μM human dicalcin was used instead of mouse dicalcin.\nAn experiment was carried out in the same manner as in Experimental Example 10-1 except that 10 μM BSA was used instead of human dicalcin."}, "OV2944 cells [9]": {"test_system": "OV2944 cells", "assay": "Cell survival assay (crystal violet)", "assay_type": "cell-based, mouse", "conditions": "20 μM; versus 10 μM BSA", "method": "as §4\nAn experiment was carried out in the same manner as in Experimental Example 4-1 except that 10 μM BSA was used instead of mouse dicalcin."}, "OV2944 cells [10]": {"test_system": "OV2944 cells", "assay": "Cell adhesion assay (Matrigel)", "assay_type": "cell-based, mouse", "conditions": "8 or 20 μM", "method": "First, a certain amount of cells (about 1×10^5 cells/well) were treated with 8 μM or 20 μM mouse dicalcin at room temperature for 20 minutes. After coating a 24-well plate with, and allowing gelation of, BD Matrigel (registered trademark) (Becton, Dickinson and Company), the pretreated cells were washed and plated therein.\nAbout 1 hour later, nonadherent cells were aspirated. After washing, adherent cells were fixed using 4% paraformaldehyde/phosphate buffer at room temperature for 10 minutes, and then stained with crystal violet, followed by counting of the cell number. The adhesion index was calculated as {(number of stained cells)/(number of plated cells)}×100(%). Normalization was carried out by the later-mentioned result of Experimental Example 3-2, which was taken as 100(%).\nAn experiment was carried out in the same manner as in Experimental Example 3-1 except that mouse dicalcin was not added.\nAn experiment was carried out in the same manner as in Experimental Example 3-1 except that 10 μM BSA was used instead of mouse dicalcin."}}, "data": [{"molecule": "p1: partial peptide of mouse dicalcin, SEQ ID NO: 12, PTETERCIE; used as control peptide (listed as Mus musculus)", "values": [{"measurement": "average number of days of survival", "setting": "OV2944 cells [1]", "value": 32, "unit": "days"}]}, {"molecule": "p4: partial peptide of mouse dicalcin, SEQ ID NO: 15, MNTELAAFTKNQKDPGVLDR (listed as Mus musculus)", "values": [{"measurement": "cell-binding ability (fluorescence intensity)", "setting": "OV2944 cells [2]", "value": "third highest cell-binding ability"}]}, {"molecule": "hDC-p6: partial peptide of human dicalcin, SEQ ID NO: 7, QLDFSEFLNLI (listed as Homo sapiens)", "values": [{"measurement": "cell invasion (invasion index)", "setting": "PC-3 cells [3]", "value": "suppresses cell invasion"}, {"measurement": "binding to the cells (fluorescence intensity)", "setting": "PC-3 cells [4]", "value": "binds to the cells"}, {"measurement": "binding to cancer cells of tissue sections", "setting": "human cancer tissues; 5 μM, 4° C. overnight, ovarian, prostate, colon, rectal, breast (4 types), renal, lung, glioma", "value": "binds to cancer cells of any of these tissues"}, {"measurement": "determination of tumor area by fluorescence positive reaction", "setting": "human cancer tissues; colon cancer section, blocking and peptide reaction together, 37° C., 1 hour", "value": "tumor area could be determined"}, {"measurement": "cell invasion (invasion index)", "setting": "OVCAR cells [5]; 2 or 10 μM, control peptide p1 10 μM", "value": "suppresses cell invasion in a concentration-dependent manner"}, {"measurement": "binding to the cells (fluorescence intensity)", "setting": "OVCAR cells [6]", "value": "binds to the cells"}]}, {"molecule": "p2: partial peptide of mouse dicalcin, SEQ ID NO: 13, SLIAVFQKY (listed as Mus musculus)", "values": [{"measurement": "cell-binding ability (fluorescence intensity)", "setting": "OV2944 cells [2]", "value": "second highest cell-binding ability"}, {"measurement": "cell invasion, ranking of suppression", "setting": "OV2944 cells [7]", "value": "followed by p2, p′7, and p5 in this order"}]}, {"molecule": "p5: partial peptide of mouse dicalcin, SEQ ID NO: 16, MMKKLDLNCDG (listed as Mus musculus)", "values": [{"measurement": "cell-binding ability (fluorescence intensity)", "setting": "OV2944 cells [2]", "value": "second highest cell-binding ability"}, {"measurement": "cell invasion, ranking of suppression", "setting": "OV2944 cells [7]", "value": "followed by p2, p′7, and p5 in this order"}]}, {"molecule": "p7: partial peptide of mouse dicalcin, SEQ ID NO: 18, GGLAIACHDSFIQTSQKRI (listed as Mus musculus)", "values": [{"measurement": "cell-binding ability (fluorescence intensity)", "setting": "OV2944 cells [2]", "value": "second highest cell-binding ability"}, {"measurement": "cell invasion, ranking of suppression", "setting": "OV2944 cells [7]", "value": "followed by p2, p′7, and p5 in this order"}]}, {"molecule": "human dicalcin: recombinant full-length human dicalcin (S100A11), SEQ ID NO:1 (protein, listed as Homo sapiens) AKISSPTETERCIESLIAVFQKYAGKDGYNYTLSKTEFLSFMNTELAAFTKNQKDPGVLDRMMKKLDTNSDGQLDFSEFLNLIGGLAMACHDSFLKAVPSQKRT", "values": [{"measurement": "invasion index", "setting": "OVCAR cells [5]; 20 μM, normalized to BSA as 100%", "value": 43.9, "unit": "%"}, {"measurement": "cell invasion (invasion index)", "setting": "OVCAR cells [5]; 8 or 20 μM human dicalcin, versus 20 μM BSA", "value": "suppresses the cell invasion in a concentration-dependent manner"}, {"measurement": "cell survival rate", "setting": "OVCAR cells [8]", "value": "does not affect the survival of the cells"}]}, {"molecule": "mouse dicalcin: recombinant full-length mouse dicalcin (S100A11), SEQ ID NO:11, expressed in E. coli (protein, listed as Mus musculus) PTETERCIESLIAVFQKYSGKDGNNTQLSKTEFLSFMNTELAAFTKNQKDPGVLDRMMKKLDLNCDGQLDFQEFLNLIGGLAIACHDSFIQTSQKRI", "values": [{"measurement": "cell survival rate", "setting": "OV2944 cells [9]", "value": "does not affect the survival of the cells"}, {"measurement": "cell adhesion (adhesion index)", "setting": "OV2944 cells [10]", "value": "suppresses the cell adhesion in a concentration-dependent manner"}, {"measurement": "binding to the cells (fluorescence)", "setting": "OV2944 cells [2]; 5 μM TMR-labeled, 1 mM CaCl2 versus 1 mM EGTA", "value": "larger amount of mouse dicalcin binds to the cells in the presence of calcium"}, {"measurement": "cell invasion (invasion index)", "setting": "OV2944 cells [7]; 2, 8 or 20 μM, normalized to 10 μM BSA", "value": "suppresses the cell invasion in a concentration-dependent manner"}]}]}
